Test results taken from PMC8248988, “A signal capture and proofreading mechanism for the KDEL-receptor explains selectivity and dynamic range in ER retrieval” (eLife, 2021).

Biological target: T1, human KDELR1 D50N/N54K (Homo sapiens, UniProt P24390, D50N/N54K)
T1 construct: expressed in transfected cells; host or cells: COS-7
Experiment: ER retrieval assay, KDELR1 D50N/N54K-GFP
Format: cell-based
Settings: COS-7 cells
Excerpt: To create KDELR1-GFP and KDELR2-GFP, the reading frames for Homo sapiens KDELR1 (Uniprot: P24390) and KDELR2 (Uniprot: P33947) were cloned into the pEF5/FRT low level mammalian expression vector with a C-terminal 20 amino acid linker made up of 5 copies of Gly-Ser-Ser-Ser followed by GFP. Specific point mutations were introduced using the Quickchange protocol (Stratagene) and are described in the key resources table and figures. To create the mScarlet-KDEL^sec ligand construct, mScarlet with an N-terminal hGH signal peptide and the 16 C-terminal residues of human BiP at its C-terminus, containing the KDEL signal, was cloned into the pcDNA3.1 vector. […] The Golgi marker protein TGN46 was detected by antibody (sheep anti-TGN46 AHP500G; AbD Serotec) and an Alexa 647 conjugated secondary anti-sheep secondary (A-21448, Invitrogen). In Figure 1d and e, endogenous KDELR was detected by antibody (mouse anti-KDELR ADI-VAA-PT048; Enzo Life Sciences) and Alexa 488 conjugated anti-mouse secondary antibody (A-21202, Invitrogen). For retrieval assays in other figures, KDELR-GFP fusion proteins were directly detected by fluorescence. The mScarlet-xDEL fusion proteins were directly detected by fluorescence. […] The fraction of KDEL receptor in the Golgi apparatus was calculated by dividing the Golgi signal by the total cell signal. […]

T1 sequence (P24390 whole entry D50N/N54K): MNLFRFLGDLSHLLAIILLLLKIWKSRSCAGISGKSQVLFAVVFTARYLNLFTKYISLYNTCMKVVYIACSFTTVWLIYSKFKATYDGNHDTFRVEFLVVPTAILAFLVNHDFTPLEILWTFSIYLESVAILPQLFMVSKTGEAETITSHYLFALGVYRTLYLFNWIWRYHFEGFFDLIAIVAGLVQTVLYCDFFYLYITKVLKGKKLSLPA

ligand-induced receptor retrieval to the ER (in words): gave a response
Substance: ADEL [pcDNA3.1 hGHss-mScarlet-H. sapiens BiP639-654K651A (ADEL^SEC), secreted mScarlet fusion with human BiP C-terminus, ADEL signal]
